Results from publication PMC11277489, “Novel Piperazine Derivatives of Vindoline as Anticancer Agents” (International Journal of Molecular Sciences, 2024).
Read-outs that look alike come from different tables or passages of the source.

Assays:
SR [1] = test: NCI60 one-dose screen (10 μM), Leukemia; type: cell-based; settings: Homo sapiens, read-out: Growth percent rate
HOP-92 = test: NCI60 one-dose screen (10 μM), Non-small Cell Lung Cancer; type: cell-based; settings: Homo sapiens; 10 μM; HOP-92, Non-small Cell Lung Cancer; read-out: Growth percent rate
NCI-H226 = test: as above; type: cell-based; settings: Homo sapiens
KM12 [2] = test: NCI60 one-dose screen (10 μM), Colon Cancer; type: cell-based, human; settings: Homo sapiens
SF-295 = test: NCI60 one-dose screen (10 μM), CNS Cancer; type: cell-based; settings: Homo sapiens
SNB-19 = test: NCI60 one-dose screen (10 μM), CNS Cancer; type: cell-based; settings: Homo sapiens
LOX IMVI = test: NCI60 one-dose screen (10 μM), Melanoma; type: cell-based, human; settings: Homo sapiens, LOX IMVI, read-out: Growth percent rate
MALME-3M [3] = test: NCI60 one-dose screen (10 μM), Melanoma; type: cell-based; settings: Homo sapiens, read-out: Growth percent rate
UACC-62 = test: NCI60 one-dose screen (10 μM), Melanoma; type: cell-based; settings: Homo sapiens
OVCAR-5 [4] = test: NCI60 one-dose screen (10 μM), Ovarian Cancer; type: cell-based; settings: Homo sapiens
NCI/ADR-RES [5] = test: NCI60 one-dose screen (10 μM), Ovarian Cancer; type: cell-based; settings: Homo sapiens, read-out: Growth percent rate
SK-OV-3 = test: NCI60 one-dose screen (10 μM), Ovarian Cancer; type: cell-based; settings: Homo sapiens
TK-10 [6] = test: NCI60 one-dose screen (10 μM), Renal Cancer; type: cell-based; settings: Homo sapiens
UO-31 [7] = test: NCI60 one-dose screen (10 μM), Renal Cancer; type: cell-based; settings: Homo sapiens
PC-3 [8] = test: NCI60 one-dose screen (10 μM), Prostate Cancer; type: cell-based; settings: Homo sapiens
MDA-MB-231/ATCC = test: NCI60 one-dose screen (10 μM), Breast Cancer; type: cell-based, human; settings: Homo sapiens
BT-549 = test: NCI60 one-dose screen (10 μM), Breast Cancer; type: cell-based; settings: Homo sapiens
T-47D = test: NCI60 one-dose screen (10 μM), Breast Cancer; type: cell-based; settings: Homo sapiens, T47D, read-out: Growth percent rate
MDA-MB-468 = test: NCI60 one-dose screen (10 μM), Breast Cancer; type: cell-based; settings: Homo sapiens; 10 μM; MDA-MB-468, Breast Cancer; read-out: Growth percent rate
CCRF-CEM = test: NCI60 five-dose screen, Leukemia; type: cell-based; settings: Homo sapiens
MOLT-4 = test: NCI60 five-dose screen, Leukemia; type: cell-based; settings: Homo sapiens, MOLT-4
SR [9] = test: NCI60 five-dose screen, Leukemia; type: cell-based; settings: Homo sapiens
A549/ATCC = test: NCI60 five-dose screen, Non-small Cell Lung Cancer; type: cell-based; settings: Homo sapiens, A549
NCI-H322M = test: NCI60 five-dose screen, Non-small Cell Lung Cancer; type: cell-based; settings: Homo sapiens
NCI-H460 = test: NCI60 five-dose screen, Non-small Cell Lung Cancer; type: cell-based; settings: Homo sapiens, NCI-H460
NCI-H522 = test: NCI60 five-dose screen, Non-small Cell Lung Cancer; type: cell-based; settings: Homo sapiens, NCI-H522
HCC-2998 = test: NCI60 five-dose screen, Colon Cancer; type: cell-based; settings: Homo sapiens, HCC 2998
KM12 [10] = test: NCI60 five-dose screen, Colon Cancer; type: cell-based; settings: Homo sapiens, KM12
SW-620 = test: NCI60 five-dose screen, Colon Cancer; type: cell-based; settings: Homo sapiens, SW-620
SNB-75 = test: NCI60 five-dose screen, CNS Cancer; type: cell-based; settings: Homo sapiens, SNB-75
MALME-3M [11] = test: NCI60 five-dose screen, Melanoma; type: cell-based; settings: Homo sapiens, Malme-3M
UACC-257 = test: NCI60 five-dose screen, Melanoma; type: cell-based; settings: Homo sapiens, UACC-257
IGROV1 = test: NCI60 five-dose screen, Ovarian Cancer; type: cell-based; settings: Homo sapiens, IGROV-1
OVCAR-3 = test: NCI60 five-dose screen, Ovarian Cancer; type: cell-based; settings: Homo sapiens, OVCAR-3
OVCAR-4 = test: NCI60 five-dose screen, Ovarian Cancer; type: cell-based; settings: Homo sapiens, OVCAR-4
OVCAR-5 [12] = test: NCI60 five-dose screen, Ovarian Cancer; type: cell-based; settings: Homo sapiens, OVCAR-5
NCI/ADR-RES [13] = test: NCI60 five-dose screen, Ovarian Cancer; type: cell-based; settings: Homo sapiens
786–0 = test: NCI60 five-dose screen, Renal Cancer; type: cell-based; settings: Homo sapiens, 786-0
ACHN = test: NCI60 five-dose screen, Renal Cancer; type: cell-based; settings: Homo sapiens
SN12C = test: NCI60 five-dose screen, Renal Cancer; type: cell-based; settings: Homo sapiens
TK-10 [14] = test: NCI60 five-dose screen, Renal Cancer; type: cell-based; settings: Homo sapiens, TK-10
UO-31 [15] = test: NCI60 five-dose screen, Renal Cancer; type: cell-based; settings: Homo sapiens, UO-31
PC-3 [16] = test: NCI60 five-dose screen, Prostate Cancer; type: cell-based; settings: Homo sapiens, PC-3
MCF7 = test: NCI60 five-dose screen, Breast Cancer; type: cell-based; settings: Homo sapiens, MCF7
MDA-MB231ATCC = test: NCI60 five-dose screen, Breast Cancer; type: cell-based; settings: Homo sapiens, MDA-MB-231
HS 578T = test: NCI60 five-dose screen, Breast Cancer; type: cell-based; settings: Homo sapiens, Hs-578T

## CC[C@]12C=CCN3CC[C@@]4(c5ccc(OC)cc5N(C)[C@H]4[C@@](O)(C(=O)OC)[C@@H]1OC(=O)CCC(=O)N1CCN(Cc4ccc(F)cc4)CC1)[C@@H]32 [Compound 30]
SR [1]; 10 μM, Leukemia
  activity at 10 µM: 56.4%
HOP-92
  activity at 10 µM: 66.4%
NCI-H226; 10 μM, NCI-H226, Non-small Cell Lung Cancer, read-out: Growth percent rate
  activity at 10 µM: 69.9%
KM12 [2]; 10 μM, KM12, Colon Cancer, read-out: Growth percent rate
  activity at 10 µM: 83.6%
SF-295; 10 μM, SF-295, CNS Cancer, read-out: Growth percent rate
  activity at 10 µM: 67.9%
SNB-19; 10 μM, SNB-19, CNS Cancer, read-out: Growth percent rate
  activity at 10 µM: 69.5%
LOX IMVI; 10 μM, Melanoma
  activity at 10 µM: 71.8%
MALME-3M [3]; 10 μM, MALME-3M, Melanoma
  activity at 10 µM: 93.3%
UACC-62; 10 μM, UACC-62, Melanoma, read-out: Growth percent rate
  activity at 10 µM: 67.1%
OVCAR-5 [4]; 10 μM, OVCAR-5, Ovarian Cancer, read-out: Growth percent rate
  activity at 10 µM: 96.3%
NCI/ADR-RES [5]; 10 μM, Ovarian Cancer
  activity at 10 µM: 65.2%
SK-OV-3; 10 μM, SK-OV-3, Ovarian Cancer, read-out: Growth percent rate
  activity at 10 µM: 103%
TK-10 [6]; 10 μM, TK-10, Renal Cancer, read-out: Growth percent rate
  activity at 10 µM: 60.6%
UO-31 [7]; 10 μM, UO-31, Renal Cancer, read-out: Growth percent rate
  activity at 10 µM: 62.3%
PC-3 [8]; 10 μM, PC-3, Prostate Cancer, read-out: Growth percent rate
  activity at 10 µM: 44.5%
MDA-MB-231/ATCC; 10 μM, MDA-MB-231/ATCC, Breast Cancer, read-out: Growth percent rate
  activity at 10 µM: 65.3%
BT-549; 10 μM, BT-549, Breast Cancer, read-out: Growth percent rate
  activity at 10 µM: 98.1%
T-47D; 10 μM, T-47D, Breast Cancer
  activity at 10 µM: 73.8%
MDA-MB-468
  activity at 10 µM: 1.38%

## CC[C@]12C=CCN3CC[C@@]4(c5ccc(OC)cc5N(C)[C@H]4[C@@](O)(C(=O)OC)[C@@H]1OC(=O)CCCN1CCN(C(c4ccc(F)cc4)c4ccc(F)cc4)CC1)[C@@H]32 [Compound 25]
CCRF-CEM
  GI50: 2040 nM
MOLT-4
  GI50: 1450 nM
SR [9]
  GI50: 1700 nM
A549/ATCC
  GI50: 2630 nM
NCI-H322M
  GI50: 1950 nM
NCI-H460
  GI50: 1780 nM
NCI-H522
  GI50: 1700 nM
HCC-2998
  GI50: 1660 nM
KM12 [10]
  GI50: 1780 nM
SW-620
  GI50: 1620 nM
SNB-75
  GI50: 5010 nM
MALME-3M [11]
  GI50: 1510 nM
UACC-257
  GI50: 1740 nM
IGROV1
  GI50: 1380 nM
OVCAR-3
  GI50: 1740 nM
OVCAR-4
  GI50: 1950 nM
OVCAR-5 [12]
  GI50: 1660 nM
NCI/ADR-RES [13]
  GI50: 1740 nM
786–0
  GI50: 1580 nM
ACHN
  GI50: 2090 nM
SN12C
  GI50: 1660 nM
TK-10 [14]
  GI50: 1510 nM
UO-31 [15]
  GI50: 1660 nM
PC-3 [16]
  GI50: 1510 nM
MCF7
  GI50: 1700 nM
MDA-MB231ATCC
  GI50: 1580 nM
HS 578T
  GI50: 1780 nM
SR [1]
  activity at 10 µM: -43.6%
NCI-H226; NCI-H226, read-out: Growth percent rate
  activity at 10 µM: -74.8%
KM12 [2]; KM12, read-out: Growth percent rate
  activity at 10 µM: -96.9%
SF-295; SF-295, read-out: Growth percent rate
  activity at 10 µM: -91%
SNB-19; SNB-19, read-out: Growth percent rate
  activity at 10 µM: -93.6%
LOX IMVI
  activity at 10 µM: -98.8%
MALME-3M [3]; Malme-3M
  activity at 10 µM: -91%
UACC-62; UACC-62, read-out: Growth percent rate
  activity at 10 µM: -92.5%
OVCAR-5 [4]; OVCAR-5, read-out: Growth percent rate
  activity at 10 µM: -92%
NCI/ADR-RES [5]
  activity at 10 µM: -80.8%
SK-OV-3; SK-OV-3, read-out: Growth percent rate
  activity at 10 µM: -72.5%
TK-10 [6]; TK-10, read-out: Growth percent rate
  activity at 10 µM: -90.4%
UO-31 [7]; UO-31, read-out: Growth percent rate
  activity at 10 µM: -97.8%
PC-3 [8]; PC-3, read-out: Growth percent rate
  activity at 10 µM: -72.3%
MDA-MB-231/ATCC; MDA-MB-231, read-out: Growth percent rate
  activity at 10 µM: -94%
BT-549; BT-549, read-out: Growth percent rate
  activity at 10 µM: -92.4%
T-47D
  activity at 10 µM: -64.6%
